Data: patent US20140056951A1, “METHODS AND COMPOSITIONS FOR TREATING BIOFILMS” (PRESIDENT AND FELLOWS OF HARVARD COLLEGE, priority 2011, published 2014)

Tests used:
[1] = tested on: B. subtilis strain NCBI3610; assay: Biofilm (pellicle) inhibition assay, B. subtilis in liquid biofilm-inducing medium; type: cell-based, Bacillus subtilis; settings: for concentration above which inhibition of biofilm formation is observed: B. subtilis pellicle formation; for inhibition of pellicle formation at 50 μM: cells diluted 1:1000 in biofilm media, final concentration 50 μM; for minimal effective concentration: Bacillus subtilis, NCBI3610, read-out: MBIC- Minimal Biofilm Inhibitory Concentration; for biofilm-inhibitory activity against B. subtilis: structure-activity
Description: Bacillus subtilis strains PY79, 3610 and their derivatives were grown in Luria-Bertani (LB) medium at 37° C. or MSgg medium (1) at 23° C. Solid media contained 1.5% Bacto agar. When appropriate, antibiotics were added at the following concentrations for growth of B. subtilis: 10 μg per ml of tetracycline, and 5 μg per ml of erythromycin, 500 μg per ml of spectinomycin.
B. subtilis strain NCBI3610 was grown at 22° C. in 12-well plates in liquid biofilm-inducing medium for 3 or 8 days. Conditioned medium (500 ml) from an 8-day-old culture was concentrated on the C-18 column and eluted step-wise with methanol. […]
Pellicle formation of strain NCBI 3610 was tested in the presence of the indicated concentrations of norspermidine (FIG. 1D) or spermidine (FIG. 1E).
To identify features of norspermidine important for its biofilm disassembly activity, we tested a library of polyamines in our biofilm inhibition assay (FIGS. 9A, 9B, 10 and Table 2).
The effect of polyamines on pellicle formation by B. subtilis was examined. B. subtilis wild-type cells were grown to a mid-logarithmic phase and diluted 1:1000 in biofilm media applied with each polyamine to the final concentration of 50 μM.
The effect of cyclic polyamines on biofilm formation by B. subtilis was examined. B. subtilis wild-type cells were grown to a mid-logarithmic phase and diluted 1:1000 in biofilm media (18A) or in a medium applied with cyclic compound 1,5,9-Triazacyclododecane to the final concentration of 50 μM (18B).

[2] = tested on: B. subtilis wild-type cells; assay: Biofilm formation on solid biofilm medium, B. subtilis; type: cell-based, Bacillus subtilis; settings: 1 μl of cells mixed with 1 μl (1 mM) polyamine
Description: B. subtilis wild-type cells were grown to a mid-logarithmic phase and 1 μl of cells was mixed with 1 μl (1 mM) of each polyamine. The mixture was plated on solid biofilm medium.
B. subtilis wild-type cells were grown to a mid-logarithmic phase and 1 μl of cells was either mixed with PBS (18C) or mixed with 1 μl (1 mM) of each polyamine (18D). The mixture was plated on solid biofilm medium. “3*” refers to 1,5,9-Triazacyclododecane.

[3] = tested on: exopolysaccharide of E. coli cells; assay: Fluorescence microscopy of exopolysaccharide staining, E. coli; type: cell-based, Escherichia coli
Excerpt: In testing E. coli, the biofilm-proficient strain MC4100 was selected because a major component of exopolysacchride is colanic acid (Danese et al., 2000; Price and Raivio, 2009).

[4] = tested on: exopolysaccharide of S. aureus cells; assay: Fluorescence microscopy of exopolysaccharide staining, S. aureus; type: cell-based, Staphylococcus aureus
[5] = tested on: exopolysaccharide and TasA of B. subtilis NCBI 3610; assay: Fluorescence microscopy of matrix components (concanavalin A-Texas Red, TasA-mCherry), B. subtilis; type: cell-based, Bacillus subtilis; settings: norspermidine 25 μM, spermidine 1 mM
Excerpt: The cells were washed in PBS and stained for exopolysaccharide with a conjugate of concanavalin A with Texas-Red.
[…] Cells were washed in PBS, and visualized by fluorescence microscopy.
To investigate further, exopolysaccharide was visualized by fluorescence microscopy using a conjugate of the carbohydrate-binding protein concanavalin A with Texas Red (FIG. 5) (McSwain et al., 2005). As evidence of specificity, the conjugate decorated wild-type cells but not cells from a mutant (Aeps) blocked in exopolysaccharide production (FIG. 6A). Indeed, at an exposure at which concanavalin A staining with the wild type strain gave an extremely bright fluorescent signal, little or no signal could be detected for the Aeps mutant, except at long exposures and enhanced brightness (FIG. 6A). Next, we investigated the effects of norspermidine and spermidine. […] Therefore, the difference in the staining was evidently due to differential levels of cell-associated exopolysaccharide. […] Thus, while not being bound to any theory, it is believed that norspermidine disrupts the matrix and by targeting exopolysaccharide.

[6] = B. subtilis biofilm inhibition assay, library of polyamines

Row | Molecule | minimal effective concentration [1, 6] | further results
1 | 1,3-diaminopropane [Molecule 6] | – | MBIC- Minimal Biofilm Inhibitory Concentration [1, 6]: 2500 to 5000 µM; concentration above which inhibition of biofilm formation is observed [1]: > 5 mM
2 | NCCCCNCCCN [Molecule 3, 1,8-diamino-4-azaoctane, reference compound] | – | inhibition of biofilm formation on solid biofilm medium [2]: do not; staining of exopolysaccharide, E. coli cells [3]: not; concentration above which inhibition of biofilm formation is observed ([1]; listed as spermidine): > 2 mM; inhibition of pellicle formation at 50 μM [1]: do not; staining of exopolysaccharide, S. aureus cells [4]: not; pattern of concanavalin A-Texas Red staining of exopolysaccharide [5]: No such effect
3 | NCCCCNCCCN [Molecule 3, spermidine] | 5000 µM | –
4 | NCCCNCCCCNCCCN [Molecule 4, 1,12-diamino-4,9-diazaoctane, reference compound] | 2500 µM | –
5 | NCCCCN [Molecule 5, 1,4-diaminobutane, reference compound] | 2000 to 3000 µM | –
6 | CN(C)CCCN(C)CCCN(C)C [Molecule 7, N^1-(3-(dimethylamino)propyl)-N^1,N^3,N^3-trimethylpropane-1,3-diamine] | > 5000 µM | –
7 | CN(C)CCCNCCCN(C)C [Molecule 8, N^1-(3-(dimethylamino)propyl)-N^3, N^3-dimethylpropane-1,3-diamine] | > 5000 µM | –
8 | CN(CCCN)CCCN [Molecule 9, (3-aminopropyl)-N^1-methylpropane-1,3-diamine] | > 5000 µM | –
9 | NCCCOCCCN [Molecule 10, 3,3′-oxybis(propan-1-amine)] | 5000 µM | –
10 | CCOC(=O)CCC(=O)CCC(=O)OCC [Molecule 11, Diethyl 4-oxoheptanedioate] | > 5000 µM | –
11 | c1cc2ccc1CNCCCNCCCNCc1ccc(cc1)CNCCCNCCCNC2 [Molecule 12, 3,7,11,18,22,26-Hexaazatricyclo[26.2.2.213,16]tetratriaconta-13,15,28,30,31,33-hexaene] | 500 µM | biofilm-inhibitory activity against B. subtilis ([1]; library of polyamines): active
12 | CCCCCCCCCCCCNCCCNCCCNCCCCCCCCCCCC [Molecule 13, N^1-dodecyl-N^3-(3-(dodecylamino)propyl)propane-1,3-diamine] | 100 µM | biofilm-inhibitory activity against B. subtilis ([1]; library of polyamines): active
13 | Cc1c(Cc2[nH]c(C(=O)OC(C)(C)C)c(C)c2C)[nH]c(Cc2[nH]c(C(=O)OC(C)(C)C)c(C)c2C)c1C [Molecule 14, di-tert-butyl 5,5′-((3,4-dimethyl-1H-pyrrole-2,5-diyl)bis(methylene))bis(3,4-dimethyl-1H-pyrrole-2-carboxylate)] | 500 to 700 µM | biofilm-inhibitory activity against B. subtilis ([1]; library of polyamines): active
14 | NNC(=O)Cc1ccc(CC(=O)NN)[nH]1 [Molecule 15, 2,2′-(1H-pyrrole-2,5-diyl)di(acetohydrazide)] | > 5000 µM | –
15 | CN(C)N(CCC(N)=O)CCC(N)=O [Molecule 16, 3,3′-(2,2-dimethylhydrazine-1,1-diyl)dipropanamide] | > 5000 µM | –
16 | O=C(NCCCNCCCNC(=O)C(O)C(O)C(O)C(O)CO)C(O)C(O)C(O)C(O)CO (centres unmarked) [Molecule 17, N,N′-(azanediylbis(propane-3,1-diyl))bis(2,3,4,5,6-pentahydroxyhexanamide)] | > 5000 µM | –
17 | NCCCCCN [Molecule 19, pentane-1,5-diamine, reference compound] | 3000 µM | –
18 | OCCCNCCCO [Molecule 20, 3,3′-azanediylbis(propan-1-ol)] | > 5000 µM | –
19 | NCCCN(CCCN)CCCN [Molecule 21, N^1,N^1-bis(3-aminopropyl)propane-1,3-diamine] | 200 µM | biofilm-inhibitory activity against B. subtilis ([1]; library of polyamines): did not block activity
20 | C1CNCCCNCCCNC1 [c, 1,5,9-triazacyclododecane] | – | inhibition of biofilm formation on solid biofilm medium [2]: inhibits biofilm formation; inhibition of pellicle formation at 50 μM [1]: inhibits biofilm formation
21 | C1COCCN1 [morpholine, reference compound] | – | inhibition of pellicle formation at 100 μM ([1]; NCBI3610 in fresh medium, 100 μM (FIG. 1B)): inactive
